Experimental data as given in patent publication US8545841B2, “Methods and compositions for the treatment of cancers and pathogenic infections” (University of Florida Research Foundation, Inc., priority 2008, dated 2013).

Experiments:
P. gingivalis = test: Trafficking of P. gingivalis to lysosomes in human coronary arterial endothelial cells (HCAEC); type: cell-based, Porphyromonas gingivalis; details: HCAEC exposed to P. gingivalis; replicative vacuole in untreated cells
Text: FIGS. 7A-7D. The inhibition of autophagy by AI-1 and AI-2 results in the trafficking of P. gingivalis to lysosomes. Human coronary arterial endothelial cells (HCAEC) were exposed to P. gingivalis (Pg) in the absence (FIG. 7A) and presence of 3-methyladenine (3MA) (FIG. 7B) and compounds AI-1 (FIG. 7C) and AI-2 (FIG. 7D).
We have previously shown that autophagy is required for P. gingivalis to thrive within host endothelial cells (Dorn, B. R., Dunn, W. A., Jr., and Progulske-Fox, A. “Porphyromonas gingivalis traffics to autophagosomes in human coronary artery endothelial cells” Infect Immun, 2001, Vol. 69, pp. 5698-5708). In fact, in the absence of autophagy, this bacterium fails to form a “replicative vacuole” and is instead transported to lysosomes where the bacterium is destroyed by digestive enzymes. We then tested the efficacy of AI-1 and AI-2 to promote the intracellular movements of this intracellular pathogen to the destructive lysosomes.

[1] = tested on: Saos-2 osteosarcoma cells; test: Survival of nutrient-starved cells, crystal violet staining; type: cell-based; details: Saos-2, nutrient-deprived serum-free medium, 24 hours
Procedure: (§1) FIGS. 6A-B. Atg-4-targeted drugs decrease cell survival of nutrient deprived cancer cells. Control breast epithelial MCF10A, MDA-MB 468 breast carcinoma, Saos2 osteosarcoma, and HuH7 hepatoma were incubated under nutrient fed and starved conditions in the presence and absence of AI-1 and AI-2. The number of viable cells on the plate relative to fed after 24 hrs was quantified by crystal violet staining. Bars=mean±SEM, n=4-6 trials.
(§2) During the early stages of tumor growth prior to vascularization, cancer cells are exposed to conditions lacking nutrients and growth factors. These cells are able to survive these conditions by activating autophagy, thereby degrading endogenous macromolecules and recycling the nutrients. In order to simulate these conditions in vitro, we have incubated cells in the absence of amino acids and serum. Approximately 65-75% of the normal and cancer cell lines tested survived when exposed to nutrient-deprived serum-free medium for 24 hours.

[2] = tested on: breast carcinoma MDA-MB468 cells; test: as above; type: cell-based; details: MDA-MB468, nutrient-deprived serum-free medium, 24 hours
Procedure: as §1, §2

HuH7 hepatoma cells = test: as above; type: cell-based; details: HuH7, nutrient-deprived serum-free medium, 24 hours
Procedure: as §1, §2

[3] = tested on: normal breast epithelial cells (MCF10A); test: as above; type: cell-based; details: nutrient-deprived serum-free medium, 24 hours
Procedure: as §1, §2

[4] = tested on: Saos-2 osteosarcoma and MDA-MB468 breast carcinoma cell lines; test: GFP-Atg8 labeled autophagic vacuoles in nutrient-starved cells stably expressing GFP-Atg8; type: cell-based; details: starved Saos-2 cells, FIG. 2
Procedure: FIGS. 2A-2D. Atg-4-targeted drugs decreased the number of Atg8 (LC3)-labeled autophagic vacuoles. Saos-2 osteosarcoma and MDA-MB468 breast carcinoma cells stably expressing GFP-Atg8 were incubated under nutrient fed and starved (St) conditions in the presence and absence of AI-1 and AI-2. The presence GFP-Atg8 labeled autophagic vacuoles appear as dots (arrows) in starved Saos-2 cells (FIG. 2B). Atg8-labeled vacuoles are not observed in fed Saos-2 cells or starved cell treated with AI-1. Almost 70% of the starved cells contained autophagic vacuoles. However, the number of starved cells containing autophagic vacuoles was dramatically reduce upon treatment with AI-1 and AI-2 (FIG. 2D; n=number of cells counted). The Atg4 compounds were obtained from the National Cancer Institute (NCI) and then tested for their ability to suppress autophagy by observing the presence of autophagosomes in Saos-2 osteosarcoma and MDA-MB468 breast carcinoma cell lines stabling expressing Atg8 tagged with a green fluorescent protein (GFP-Atg8). Upon the onset of autophagy, Atg8 becomes lipidated being anchored to the autophagosome membrane whereby this protein then recruits additional membranes for expanding the size of the vacuoles and thus, regulating the degradative amplitude of autophagy. […]

[5] = tested on: Saos-2 and MDA-MB468 cells; test: Starvation induced (autophagy-mediated) protein degradation, pulse-chase with 14C-leucine; type: cell-based; details: starved cells, FIG. 4
Procedure: FIG. 4. Atg-4-targeted drugs suppress starvation induced (autophagy-mediated) protein degradation. Saos-2 and MDA-MB468 cells were incubated under nutrient fed and starved conditions in the presence and absence of 3-methyladenine (3MA), AI-1 and AI-2 and the rates of protein degradation measure by pulse-chase methodology with 14C-leucine. Bars=mean±SEM. n=4-6 trials. The Atg4 compounds were obtained from the National Cancer Institute (NCI) and then tested for their ability to suppress autophagy by observing the presence of autophagosomes in Saos-2 osteosarcoma and MDA-MB468 breast carcinoma cell lines stabling expressing Atg8 tagged with a green fluorescent protein (GFP-Atg8). Upon the onset of autophagy, Atg8 becomes lipidated being anchored to the autophagosome membrane whereby this protein then recruits additional membranes for expanding the size of the vacuoles and thus, regulating the degradative amplitude of autophagy. […] Compared to 70% of the starved cells containing autophagic vacuoles, less than 20% of those starved cells treated with AI-1 or AI-2 contained these vacuoles. These observations were consistent with the negative effects of these compounds on the lipidation of Atg8 (FIG. 3). Saos-2 cells expressing GFP-Atg8 were starved for amino acids for 2-6 h in the absence and presence of 3-methyladenine and the Atg4 compounds. […]

Atg8 (LC3) = test: Lipidation of Atg8 (Atg8-PE) by Western blotting in starved Saos-2 cells; type: cell-based; details: Saos-2 cells expressing GFP-Atg8 starved for amino acids for 2-6 h
Text: (§3) FIG. 3. Atg-4-targeted compounds suppress the lipidation of Atg8 (LC3) in Saos-2 osteosarcoma cells. The lipidation of Atg8 (Atg8-PE) was examined by Western blotting in fed and starved (medium lacking amino acids and serum) cells and in starved cells treated with 3-methyladenine (3MA), AI-1 and AI-2. The Atg4 compounds were obtained from the National Cancer Institute (NCI) and then tested for their ability to suppress autophagy by observing the presence of autophagosomes in Saos-2 osteosarcoma and MDA-MB468 breast carcinoma cell lines stabling expressing Atg8 tagged with a green fluorescent protein (GFP-Atg8). Upon the onset of autophagy, Atg8 becomes lipidated being anchored to the autophagosome membrane whereby this protein then recruits additional membranes for expanding the size of the vacuoles and thus, regulating the degradative amplitude of autophagy. […] Compared to 70% of the starved cells containing autophagic vacuoles, less than 20% of those starved cells treated with AI-1 or AI-2 contained these vacuoles. These observations were consistent with the negative effects of these compounds on the lipidation of Atg8 (FIG. 3). Saos-2 cells expressing GFP-Atg8 were starved for amino acids for 2-6 h in the absence and presence of 3-methyladenine and the Atg4 compounds. […]

MDA-MB468 cells = test: Size and distribution of autophagic vacuoles by electron microscopy; type: cell-based; details: starved MDA-MB468 cells
Procedure: FIGS. 5A-5D. Atg-4-targeted drugs reduce the size of autophagic vacuoles. MDA-MB468 cells were incubated under nutrient fed (FIG. 5A) and starved (medium lacking amino acids and serum; FIG. 5B) conditions in the presence and absence of AI-1 (FIG. 5C) and AI-2 (FIG. 5D), Autophagic vacuoles (arrows) were visualized by electron microscopy. The “black” reaction product of CMPase, a lysosomal enzyme, can be seen within small lysosomes, many larger autophagic vacuoles (arrows) as well as the Golgi apparatus (Go).
as §3, with “The” for “FIG. 3. Atg-4-targeted compounds suppress the lipidation of Atg8 (LC3) in Saos-2 osteosarcoma cells. The lipidation of Atg8 (Atg8-PE) was examined by Western blotting in fed and starved (medium lacking amino acids and serum) cells and in starved cells treated with 3-methyladenine (3MA), AI-1 and AI-2. The”, “3).” for “3). Saos-2 cells expressing GFP-Atg8 were starved for amino acids for 2-6 h in the absence and presence of 3-methyladenine and the Atg4 compounds.”

| Compound | location and state of intracellular P. gingivalis (P. gingivalis) | survival of nutrient-starved cells [1] | survival of nutrient-starved cells [2] | survival of nutrient-starved cells (HuH7 hepatoma cells) | survival of nutrient-starved cells [3] | Atg8-labeled vacuoles observed [4] | degradation of endogenous proteins [5] | lipidation of Atg8 (Atg8-PE) (Atg8 (LC3)) | distribution of autophagic vacuoles (MDA-MB468 cells) |
| --- | --- | --- | --- | --- | --- | --- | --- | --- | --- |
| Cn1cnc(N)c2ncnc1-2 [3-methyladenine, reference compound] | partially degraded bacteria were found in CMPase-positive lysosomes |  |  |  |  |  |  |  |  |
| S=C(Nc1ccccn1)c1ccccn1 [AI-1, N-2-pyridinyl-2-pyridinecarbothioamide] | bacteria in various degraded states were observed in CMPase-positive lysosomes | moderate activity | less than 40% | moderate activity | only moderately affected | not observed | reduction in the degradation of endogenous proteins | inhibiting the lipidation of Atg8 (LC3) |  |
| CC(C)OC(=O)Nc1ccc2nc(-c3cscn3)[nH]c2c1 [AI-2, cambendazole] | bacteria in various degraded states were observed in CMPase-positive lysosomes |  |  | 30 % of controls | only moderately affected |  | reduction in the degradation of endogenous proteins | inhibiting the lipidation of Atg8 (LC3) | dramatic redistribution of the autophagic vacuoles to a centralized region of the cell |
